Reference: US20230391785A1, “NITROGEN-CONTAINING HETEROCYCLIC COMPOUND, METHOD FOR PREPARING SAME AND USE OF SAME” (280 Bio, Inc., priority 2021, published 2023)
Like-named read-outs stand apart in the source and are kept apart here.

Legend:
Assay type in all cases: cell-based
[1] = tested on: A375 wild type malignant melanoma cell line; test: Proliferation inhibition measured by CTG (CellTiter Glo), A375; settings: Homo sapiens, A-375
Source text: (§1) NCI-H358 is a human non-small cell lung cancer cell line with KRAS G12C mutation; PANC-1 and AsPC-1 are pancreatic cancer cell lines with KRAS G12D mutation; AGS is a gastric cancer cell line with KRAS G12D mutation; A427 is a lung cancer cell line with KRAS G12D mutation; THP-1 is a leukemia cell line with NRAS G12D mutation; Hs 578T is a breast cancer cell line with HRAS G12D mutation; SW480 is a colon cancer cell lines with KRAS G12V mutation; A375 is a wild type malignant melanoma cell line. The proliferation inhibitory effect of the compounds on various mutations was evaluated by determining the proliferation inhibitory activity of the compounds on these cell lines.
(§2) The assay was conducted on either 384-well plates or 96-well plates. The procedures are as follows:
(§3) The cell suspensions were added to 384- or 96-well plates (384-well plate: 40 μL; 96-well plate: […]) except for peripheral wells. The plates were incubated in a carbon dioxide incubator overnight. Prepared compounds (10 concentration gradients by serial 3-fold dilution) were added to the wells. The cell plates were incubated in a carbon dioxide incubator for 120 hours. CellTiter Glo reagent (384 well plate: 25 μL; 96 well plate: 100 μL) was added to the 384- or 96-well plates. The plates were shaken for 10 minutes away from light, and incubated for 10 minutes. The plates were read by EnVision system. Inhibition curves were plotted using XLFit and IC50 values were calculated. “IC50>10 μM” is denoted by “*”, “10 μM≥IC50>1 μM” is denoted by “**”, “1 μM≥IC50>100 nM” is denoted by “***”, and “IC50≤100 nM” is denoted by “****”.

[2] = tested on: AsPC-1 pancreatic cancer cell line (KRAS G12D mutation); test: Proliferation inhibition measured by CTG (CellTiter Glo), AsPC-1; settings: Homo sapiens, ASPC1
Source text: as §1, §2, §3

[3] = tested on: NCI-H358 cells (KRAS G12C mutation); test: Proliferation inhibition measured by CTG (CellTiter Glo), NCI-H358; settings: Homo sapiens
Source text: as §1, §2, §3

[4] = tested on: Hs 578T breast cancer cell line (HRAS G12D mutation); test: Proliferation inhibition measured by CTG (CellTiter Glo), Hs 578T; settings: Homo sapiens, Table 1, CTG, 120 hours incubation, class symbol
Source text: as §1, §2, §3

[5] = tested on: AGS gastric cancer cell line (KRAS G12D mutation); test: Proliferation inhibition measured by CTG (CellTiter Glo), AGS; settings: CTG, 120 hours incubation
Source text: as §1, §2, §3

[6] = tested on: THP-1 leukemia cell line (NRAS G12D mutation); test: Proliferation inhibition measured by CTG (CellTiter Glo), THP-1; settings: Homo sapiens, Table 1, CTG, 120 hours incubation, class symbol
Source text: as §1, §2, §3

[7] = tested on: SW480 colon cancer cell line (KRAS G12V mutation); test: Proliferation inhibition measured by CTG (CellTiter Glo), SW480; settings: Homo sapiens, Table 3, 120 hours incubation, class symbol, read-out: IC50 (SW480)
Source text: as §1, §2, §3

[8] = Table 1, CTG, 120 hours incubation, class symbol, read-out: IC50 (A375)
[9] = Table 1, CTG, 120 hours incubation, class symbol
[10] = Table 1, CTG, 120 hours incubation, class symbol, read-out: IC50 (H358)
[11] = Table 1, class symbol, read-out: IC50 (AGS)
[12] = Table 3, class symbol, read-out: IC50 (AGS)
[13] = Table 3, CTG, 120 hours incubation, class symbol, read-out: IC50 (A375)
[14] = Table 3, CTG, 120 hours incubation, class symbol, read-out: IC50 (H358)

IC50 [1, 8] [µM] | IC50 [2, 9] [µM] | IC50 [3, 10] [µM] | IC50 [4] [nM] | IC50 [5, 11] [nM] | IC50 [6] [nM] | IC50 [5, 12] [nM] | IC50 [1, 13] [µM] | IC50 [3, 14] [µM] | IC50 [7] [nM] | Compound | also measured
> 10 | > 10 | > 10 | – | – | – | – | – | – | – | CN1CCC[C@H]1COc1nc2c(c(N3CCc4cnoc4C3)n1)CCN(c1cccc3cccc(Cl)c13)C2 [Comparative compound 1′, reference compound] | IC50 ([1]; Table 1, number in parentheses, unit not given in Table 1 (Table 2 gives the same value in μM), read-out: IC50 (A375)): 22.7 µM; IC50 ([2]; Table 1, number in parentheses, unit not given in Table 1 (legend and Table 2 use μM)): 39.7 µM; IC50 ([3]; Table 1, number in parentheses, no unit printed in Table 1 (Table 2 gives the same values of compound 2 in μM), read-out: IC50 (H358)): 17.2 µM
1 to 10 | 1 to 10 | 0.1 to 1 | – | – | – | – | – | – | – | CN1CCC[C@H]1COc1nc2c(c(N3CCn4cncc4C3)n1)CO[C@H](c1cccc3cccc(Cl)c13)C2 [Compound 3] | –
1 to 10 | 1 to 10 | 1 to 10 | – | – | – | – | – | – | – | Cc1ncc2n1CCN(c1nc(OC[C@@H]3CCCN3C)nc3c1CCN(c1cccc4cccc(Cl)c14)C3)C2 [Compound 5] | –
0.1 to 1 | 0.1 to 1 | ≤ 0.1 | 100 to 1000 | ≤ 100 | 100 to 1000 | – | – | – | – | CN1CCC[C@@H]1COc1nc2c(c(N3CCn4cncc4C3)n1)CCN(c1cccc3cccc(Cl)c13)C2 [Compound 18] | –
1 to 10 | 1 to 10 | 0.1 to 1 | 1000 to 10000 | 100 to 1000 | 100 to 1000 | – | – | – | – | CN1CCC(Oc2nc3c(c(N4CCn5cncc5C4)n2)CCN(c2cccc4cccc(Cl)c24)C3)CC1 [Compound 20] | –
0.1 to 1 | 0.1 to 1 | ≤ 0.1 | 100 to 1000 | ≤ 100 | 100 to 1000 | – | – | – | – | CN(C)CCCOc1nc2c(c(N3CCn4cncc4C3)n1)CCN(c1cccc3cccc(Cl)c13)C2 [Compound 21] | –
≤ 0.1 | ≤ 0.1 | ≤ 0.1 | 100 to 1000 | ≤ 100 | ≤ 100 | – | – | – | – | CC1Cn2cncc2CN1c1nc(OC[C@@H]2CCCN2C)nc2c1CCN(c1cccc3cccc(Cl)c13)C2 (stereo partly drawn) [Compound 22] | IC50 ([5]; Table 2, read-out: IC50 AGS (G12D)): 54 nM; IC50 ([1]; Table 2, CTG, 120 hours incubation, read-out: IC50 A375 (wide type)): 0.096 µM; IC50 ([3]; Table 2, CTG, 120 hours incubation, read-out: IC50 H358 (G12C)): 0.073 µM
0.1 to 1 | 0.1 to 1 | 0.1 to 1 | 1000 to 10000 | 100 to 1000 | 100 to 1000 | – | – | – | – | COC1CN(c2nc(OC[C@@H]3CCCN3C)nc3c2CCN(c2cccc4cccc(Cl)c24)C3)Cc2cncn21 (stereo partly drawn) [Compound 23] | –
0.1 to 1 | 1 to 10 | 0.1 to 1 | > 10000 | 1000 to 10000 | 100 to 1000 | – | – | – | – | Clc1cccc2cccc(N3CCc4c(nc(OCC56CCCN5CCC6)nc4N4CCn5cncc5C4)C3)c12 [Compound 24] | –
1 to 10 | 0.1 to 1 | 0.1 to 1 | 1000 to 10000 | 100 to 1000 | 100 to 1000 | – | – | – | – | CN1CCO[C@H](COc2nc3c(c(N4CCn5cncc5C4)n2)CCN(c2cccc4cccc(Cl)c24)C3)C1 [Compound 27] | –
0.1 to 1 | 0.1 to 1 | 0.1 to 1 | 1000 to 10000 | 100 to 1000 | 100 to 1000 | – | – | – | – | CN1CC[C@@H](COc2nc3c(c(N4CCn5cncc5C4)n2)CCN(c2cccc4cccc(Cl)c24)C3)C1 [Compound 28] | –
0.1 to 1 | ≤ 0.1 | ≤ 0.1 | 100 to 1000 | ≤ 100 | 100 to 1000 | – | – | – | – | CC(CN(C)C)Oc1nc2c(c(N3CCn4cncc4C3)n1)CCN(c1cccc3cccc(Cl)c13)C2 (stereo not drawn) [Compound 29] | –
0.1 to 1 | 0.1 to 1 | 0.1 to 1 | 1000 to 10000 | 100 to 1000 | 100 to 1000 | – | – | – | – | CN1CCC[C@H]1COc1nc2c(c(N3CCn4cnc(-c5ccccc5)c4C3)n1)CCN(c1cccc3cccc(Cl)c13)C2 [Compound 30] | –
1 to 10 | 0.1 to 1 | 0.1 to 1 | 1000 to 10000 | 100 to 1000 | 100 to 1000 | – | – | – | – | Clc1cccc2cccc(N3CCc4c(nc(OCCN5CCCCC5)nc4N4CCn5cncc5C4)C3)c12 [Compound 31] | –
– | – | – | – | – | – | ≤ 100 | ≤ 0.1 | ≤ 0.1 | ≤ 100 | Cc1cccc(N)c1C(=O)Oc1cc(N2CCc3c(nc(OC[C@@H]4CCCN4C)nc3N3Cc4c(F)ncn4C[C@H]3C)C2)c2c(Cl)cccc2c1 [Compound 102] | –
– | – | – | – | – | – | 100 to 1000 | 0.1 to 1 | 0.1 to 1 | 100 to 1000 | C[C@@H]1Cn2cnc(F)c2CN1c1nc(OC[C@@H]2CCCN2C)nc2c1CO[C@H](c1cccc3cccc(Cl)c13)C2 [Compound 104] | –
– | – | – | – | – | – | ≤ 100 | ≤ 0.1 | ≤ 0.1 | ≤ 100 | C[C@@H]1Cn2cnc(F)c2CN1c1nc(OC[C@@H]2CCCN2C)nc2c1CCN(c1cc(O)c(Cl)c3cccc(Cl)c13)C2 [Compound 105] | –
– | – | – | – | – | – | ≤ 100 | ≤ 0.1 | ≤ 0.1 | ≤ 100 | C[C@@H]1Cn2cnc(F)c2CN1c1nc(OC[C@@H]2CCCN2C)nc2c1CCN(c1cccc3cccc(F)c13)C2 [Compound 106] | –
– | – | – | – | – | – | ≤ 100 | ≤ 0.1 | ≤ 0.1 | ≤ 100 | CC[C@@H]1Cn2cncc2CN1c1nc(OC[C@@H]2CCCN2C)nc2c1CCN(c1cccc3cccc(Cl)c13)C2 [Compound 107] | –
– | – | – | – | – | – | ≤ 100 | 0.1 to 1 | 0.1 to 1 | ≤ 100 | C#Cc1c(F)ccc2cc(O)cc(N3CCc4c(nc(OC[C@@H]5CCCN5C)nc4N4Cc5c(F)ncn5C[C@H]4C)C3)c12 [Compound 108] | –
– | – | – | – | – | – | 100 to 1000 | 1 to 10 | 1 to 10 | 100 to 1000 | C[C@@H]1Cn2cnc(F)c2CN1c1nc(OC[C@@H]2CCCN2C)nc2c1CCN(c1cc(NC(=O)OC(C)(C)C)cc3cccc(Cl)c13)C2 [Compound 109] | –
– | – | – | – | – | – | ≤ 100 | ≤ 0.1 | ≤ 0.1 | ≤ 100 | C[C@@H]1Cn2cnc(F)c2CN1c1nc(OC[C@@H]2CCCN2C)nc2c1CCN(c1cc(N)cc3cccc(Cl)c13)C2 [Compound 110] | –
– | – | – | – | – | – | 1000 to 10000 | 1 to 10 | 1 to 10 | 100 to 1000 | CC(=O)Nc1cc(N2CCc3c(nc(OC[C@@H]4CCCN4C)nc3N3Cc4c(F)ncn4C[C@H]3C)C2)c2c(Cl)cccc2c1 [Compound 111] | –
– | – | – | – | – | – | 100 to 1000 | 1 to 10 | 1 to 10 | 100 to 1000 | C[C@@H]1Cn2cnc(F)c2CN1c1nc(OC[C@@H]2CCCN2C)nc2c1CCN(c1cc(NS(C)(=O)=O)cc3cccc(Cl)c13)C2 [Compound 112] | –
– | – | – | – | – | – | ≤ 100 | ≤ 0.1 | ≤ 0.1 | ≤ 100 | C[C@@H]1Cn2cnc(F)c2CN1c1nc(OC[C@@H]2CCCCN2C)nc2c1CCN(c1cccc3cccc(F)c13)C2 [Compound 113] | –
– | – | – | – | – | – | ≤ 100 | ≤ 0.1 | ≤ 0.1 | ≤ 100 | C[C@@H]1Cn2cnc(F)c2CN1c1nc(OC[C@@H]2CCCCN2C)nc2c1CCN(c1cc(F)cc3cccc(Cl)c13)C2 [Compound 115] | –
– | – | – | – | – | – | ≤ 100 | ≤ 0.1 | ≤ 0.1 | ≤ 100 | C[C@@H]1Cn2cnc(F)c2CN1c1nc(OC[C@@H]2CCCN2C)nc2c1CCN(c1cc(F)cc3cccc(Cl)c13)C2 [Compound 117] | –
– | – | – | – | – | – | ≤ 100 | 0.1 to 1 | 0.1 to 1 | ≤ 100 | CC1Cc2[nH]ncc2CN1c1nc(OC[C@@H]2CCCN2C)nc2c1CCN(c1cccc3cccc(Cl)c13)C2 (stereo partly drawn) [Compound 118] | –

Compound | IC50 [1, 8] [µM] | IC50 [2, 9] [µM] | IC50 [3, 10] [µM] | IC50 [4] [nM] | IC50 [5, 11] [nM] | IC50 [6] [nM] | IC50 [5, 12] [nM] | IC50 [1, 13] [µM] | IC50 [3, 14] [µM] | IC50 [7] [nM] | also measured
CCc1ccc(NC(=O)Oc2cc(N3CCc4c(nc(OC[C@@H]5CCCN5C)nc4N4Cc5c(F)ncn5C[C@H]4C)C3)c3c(Cl)cccc3c2)cc1 [Compound 103] | – | – | – | – | – | – | ≤ 100 | ≤ 0.1 | ≤ 0.1 | ≤ 100 | –
